The source made the active and inactive calls. The calls are words filed in the database; no cut-off is given here.
Experiments:
Type in all cases: functional, cell-based
[1] = test system: Cerebral cortex neuron; experiment: Neuroprotective activity in Sprague-Dawley rat primary cortical neurons assessed as inhibition of amyloid beta 1 to 42-induced toxicity by measuring cell viability at 100 uM by trypan blue exclusion assay
[2] = test system: Cerebral cortex neuron; experiment: Neuroprotective activity in Sprague-Dawley rat primary cortical neurons assessed as inhibition of amyloid beta 1 to 42-induced toxicity by measuring cell viability at 0.1 uM by trypan blue exclusion assay
[3] = test system: Cerebral cortex neuron; experiment: Neuroprotective activity in Sprague-Dawley rat primary cortical neurons assessed as inhibition of glutamate-induced toxicity by measuring cell viability at 10 uM by trypan blue exclusion assay
[4] = test system: Cerebral cortex neuron; experiment: Neuroprotective activity in Sprague-Dawley rat primary cortical neurons assessed as inhibition of glutamate-induced toxicity by measuring cell viability at 0.01 uM by trypan blue exclusion assay

Compound	Activity [1]	Activity [2]	further results
O=C1CCC(c2cccnc2)N1 (stereo unspecified)	Active	–	–
CN1CCC[C@H]1c1cccnc1	–	Active	–
CC12CC3CC(C)(C1)CC(N)(C3)C2	–	–	Activity [3]: Active
CN1C(=O)CC[C@H]1c1cccnc1	–	Active	–
C[N+]1=CCC[C@H]1c1cccnc1	Active	–	–
CN1CCC[C@H]1c1ccc[n+]([O-])c1	–	–	Activity [4]: Active

— ChEMBL document CHEMBL3124939, “Evaluation of nicotine and cotinine analogs as potential neuroprotective agents for Alzheimer's disease” (2014)
